Experiments:
VHL Elongin B/C complex = VHL Elongin B/C complex (Homo sapiens (Human), UniProt P40337); assay: Fluorescence Polarization (FP) VHL Binding Assay; details: VHL binding, FP assay; geometric mean where more than one measurement
Method in brief: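 FP tracer competition using His6-tagged human VHL (E55-D213) co-expressed with Elongin B and C in E. coli, final 2.64 nM, with TAMRA-labelled VHL ligand probe at 1.67 nM final. Buffer 50 mM Tris pH 8.0, 120 mM NaCl, 0.005% NP-40, 1% DMSO; 1 h at room temperature. Pre-assay compound/protein signal subtracted; IC50 from four-parameter fit.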

[1] = target: VHL co-expressed with Elongins B and C (Homo sapiens (Human), UniProt P40337); assay: Surface Plasmon Resonance Assay; format: binding; details: SPR measured VHL affinity; geometric mean where more than one measurement
Sequence of VHL co-expressed with Elongins B and C (P40337 whole entry, looked up): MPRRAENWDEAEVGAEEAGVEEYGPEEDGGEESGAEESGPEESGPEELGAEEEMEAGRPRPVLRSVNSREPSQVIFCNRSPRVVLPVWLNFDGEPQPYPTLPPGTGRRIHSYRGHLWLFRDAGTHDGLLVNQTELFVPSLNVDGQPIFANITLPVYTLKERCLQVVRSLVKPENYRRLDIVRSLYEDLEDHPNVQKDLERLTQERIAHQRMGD
Sequence of VHL co-expressed with Elongins B and C (Q15370 whole entry partner, looked up): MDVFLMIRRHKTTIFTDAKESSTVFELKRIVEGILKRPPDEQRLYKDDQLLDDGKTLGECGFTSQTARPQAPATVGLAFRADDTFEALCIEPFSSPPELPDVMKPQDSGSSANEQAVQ
Sequence of VHL co-expressed with Elongins B and C (Q15369 whole entry partner, looked up): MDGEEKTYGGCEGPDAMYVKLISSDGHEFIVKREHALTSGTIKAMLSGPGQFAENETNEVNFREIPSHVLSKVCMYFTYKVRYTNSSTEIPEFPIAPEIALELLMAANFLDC
Method in brief: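 Avidin-tagged VHL co-expressed with Elongins B and C captured on a streptavidin chip. Compounds injected low-to-high concentration at 20 °C and 80 μL/min in 50 mM HEPES pH 7.2, 150 mM NaCl, 0.5 mM TCEP, 0.001% Tween 20, 0.2% PEG3350, 2% DMSO. Kinetic parameters from fits of binding curves.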

[2] = target: NanoLuc VHL fusion protein (Homo sapiens (Human), UniProt P40337); assay: VHL HEK-293 BRET Assay (NanoBRET Target Engagement); format: cell-based; details: geometric mean where more than one measurement
Sequence of NanoLuc VHL fusion protein (P40337 whole entry, looked up, the tested form may be a part): as the sequence (P40337 whole entry, looked up) above
Sequence of NanoLuc VHL fusion protein (Q15370 whole entry partner, looked up, the tested form may be a part): as the sequence (Q15370 whole entry partner, looked up) above
Sequence of NanoLuc VHL fusion protein (Q15369 whole entry partner, looked up, the tested form may be a part): as the sequence (Q15369 whole entry partner, looked up) above
Description: The VHL NanoBRET™ Target Engagement Assay analyzes the apparent affinity of test compounds for VHL in cells by competitive displacement of a VHL NanoBRET™ tracer reversibly bound to a NanoLuc® VHL fusion protein stably expressed in the cells. Test compounds were transferred to the assay plate (384 Well White Non-Binding Corning Assay Plates (Corning-3574)) using an Echo 555 Liquid Handler (Labcyte) in 2.5 nL increments and, as appropriate, intermediate stock concentrations of compounds, in order to prepare a titration series. 50 nL of control compound (10 mM; parental unlabeled VHL antagonist; see structure below) and 50 nL of DMSO (negative control) were dispensed into the appropriate control wells. DMSO was backfilled to a final volume of 50 nL as required. 50 nl per well of 1 mM VHL NanoBRET™ Tracer in DMSO (NanoBRET™ Tracer-PEG2-590 (see structure below)) was transferred into each well using an Echo 555 (ultimately yielding a final concentration of 1 uM). HEK 293 RT VHL-NanoLuc® stable cells were cultured in DMEM High Glucose with Pyruvate, 10% fetal bovine serum, 2 mg/mL of Geneticin Selective Antibiotic (50 mg/ml) and 2 mM HEPES (1 M). Cells were seeded in Opti-MEM (Life Technologies-11058-021), 1.7×10^5 cells/mL, 40 μl per well into the assay plate, centrifuged at 500 rpm for 30 seconds and incubated for 2 hours. Max Signal control wells consisted of DMSO only treated wells. Minimum Signal control wells contained of 10 uM parental unlabeled VHL antagonist (control compound—see structure below). 3× Complete Substrate plus Inhibitor Solution was prepared in Opti-MEM (consists of a 1:166 dilution of NanoBRET™ Nano-Glo® Substrate plus a 1:500 dilution of Extracellular NanoLuc® Inhibitor in Opti-MEM), and 20 ul was dispensed into each well of the 384-well plate and centrifuged at 1000 rpm for 1 minute, then incubated for 2 minutes at room temperature. Background Signal control wells were prepared without tracer for background correction steps. Plates were read using a PerkinElmer Envision Reader (model 2104-0020) equipped with Luminescence option (Mirror: BRET2 Enh (PE Barcode 659), Emission Filter: Omega 610LP (Barcode 504), 2nd Emission Filter: Umbelliferone 460 (Barcode 207), Measurement height: 6.5 mm, Measurement time: 1 s). The raw BRET ratio values were calculated by dividing the acceptor emission value (610 nm) by the donor emission value (460 nm) for each sample. To correct for background, the BRET ratio in the absence of tracer (average of no-tracer control samples) was subtracted from the BRET ratio of each sample. Raw BRET units were converted to milliBRET units (mBU) by multiplying each raw BRET value by 1,000. The normalized NanoBRET™ signal was calculated relative to the Max Signal control wells (DMSO treated control wells) and the Minimum Signal control wells. Percentage inhibition was calculated relative to the Minimum Signal control and Maximum Signal control wells. IC50 values were derived by four parameter curve fitting using the Robust method.

Sequence of VHL Elongin B/C complex (P40337 whole entry, looked up): as the sequence (P40337 whole entry, looked up) above
Sequence of VHL Elongin B/C complex (Q15370 whole entry partner, looked up): as the sequence (Q15370 whole entry partner, looked up) above
Sequence of VHL Elongin B/C complex (Q15369 whole entry partner, looked up): as the sequence (Q15369 whole entry partner, looked up) above

SMILES | IC50 (VHL Elongin B/C complex) | Kd [1] | IC50 [2]
Cc1ncsc1-c1ccc([C@]2(C)NC(C3C[C@@H](O)CN3C(=O)C(c3cc(O)no3)C(C)C)=NC2=O)cc1 (single isomer, unassigned) [Example 116.1] | 4.35 µM | 5.1 µM | 100 µM
Cc1cc([C@H](C(=O)N2C[C@H](O)C[C@H]2C2=NO[C@@](c3ccccc3)(C(F)(F)F)N2)C(C)C)on1 (mixture of isomers) [Example 114.3, (2S)-1-((2S,4R)-4-Hydroxy-2-(5-phenyl-5-(trifluoromethyl)-4,5-dihydro-1,2,4-oxadiazol-3-yl)pyrrolidin-1-yl)-3-methyl-2-(3-methylisoxazol-5-yl)butan-1-one and (2R)-1-((2S,4R)-4-Hydroxy-2-(5-phenyl-5-(trifluoromethyl)-4,5-dihydro-1,2,4-oxadiazol-3-yl)pyrrolidin-1-yl)-3-methyl-2-(3-methylisoxazol-5-yl)butan-1-one] | 47 µM | 8.8 µM | 48.8 µM
Cc1cc([C@@H](C(=O)N2C[C@H](O)C[C@H]2C2=NOC3(CCc4ccccc43)N2)C(C)C)on1 (single isomer, unassigned) [Example 130.1] | 96.1 µM | 83 µM | 100 µM
Cc1cc([C@@H](C(=O)N2C[C@H](O)C[C@H]2C2=NO[C@](C)(c3ccc(Br)cc3)N2)C(C)C)on1 (mixture of isomers) [Example 113.3, (2S)-1-((2S,4R)-2-(5-(4-Bromophenyl)-5-methyl-4,5-dihydro-1,2,4-oxadiazol-3-yl)-4-hydroxypyrrolidin-1-yl)-3-methyl-2-(3-methylisoxazol-5-yl)butan-1-one and (2R)-1-((2S,4R)-2-(5-(4-Bromophenyl)-5-methyl-4,5-dihydro-1,2,4-oxadiazol-3-yl)-4-hydroxypyrrolidin-1-yl)-3-methyl-2-(3-methylisoxazol-5-yl)butan-1-one] | 400 µM | 90.8 µM | 100 µM
Cc1cc([C@H](C(=O)N2C[C@H](O)C[C@H]2C2=NO[C@](c3ccccc3)(C(F)(F)F)N2)C(C)C)on1 (mixture of isomers) [Example 114.2, (2S)-1-((2S,4R)-4-Hydroxy-2-(5-phenyl-5-(trifluoromethyl)-4,5-dihydro-1,2,4-oxadiazol-3-yl)pyrrolidin-1-yl)-3-methyl-2-(3-methylisoxazol-5-yl)butan-1-one and (2R)-1-((2S,4R)-4-Hydroxy-2-(5-phenyl-5-(trifluoromethyl)-4,5-dihydro-1,2,4-oxadiazol-3-yl)pyrrolidin-1-yl)-3-methyl-2-(3-methylisoxazol-5-yl)butan-1-one] | 400 µM | 150 µM | 100 µM
Cc1cc([C@H](C(=O)N2C[C@H](O)C[C@H]2C2=NOC(c3ccc(Br)cc3)(C(F)(F)F)N2)C(C)C)on1 (single isomer, unassigned) [Example 133.3] | 34.4 µM | 36.3 µM | 22.6 µM
Cc1ncsc1-c1ccc([C@]2(C)NC(C3C[C@@H](O)CN3C(=O)C3N(S(C)(=O)=O)CCC3(C)C)=NC2=O)cc1 (single isomer, unassigned) [Example 125.4] | ≥ 400 µM | ≥ 150 µM | 100 µM
Cc1ncsc1-c1ccc([C@]2(C)NC(C3C[C@@H](O)CN3C(=O)C(c3cc(O)no3)C(C)C)=NC2=O)cc1 (single isomer, unassigned) [Example 116.4] | 35.4 µM | 5.3 µM | 100 µM
Cc1cc([C@H](C(=O)N2C[C@H](O)C[C@H]2C2=NOC(C)(c3ccc(-c4scnc4C)cc3)N2)C(C)C)on1 (single isomer, unassigned) [Example 129.4] | 0.202 µM | 0.0438 µM | 0.239 µM
Cc1cc([C@H](C(=O)N2C[C@H](O)C[C@H]2C2=NOC(C)(C)N2)C(C)C)on1 [Example 126.1, (R)-1-((2S,4R)-2-(5,5-dimethyl-4,5-dihydro-1,2,4-oxadiazol-3-yl)-4-hydroxypyrrolidin-1-yl)-3-methyl-2-(3-methylisoxazol-5-yl)butan-1-one] | 31.4 µM | 12.8 µM | 45.4 µM

Now from value to molecule:

IC50 (VHL Elongin B/C complex) | Kd [1] | IC50 [2] | SMILES
≥ 400 µM | ≥ 150 µM | 100 µM | Cc1ncsc1-c1ccc([C@]2(C)NC(C3C[C@@H](O)CN3C(=O)[C@@H]3CCCCN3S(C)(=O)=O)=NC2=O)cc1 (single isomer, unassigned) [Example 122.1]
≥ 400 µM | 217 µM | 100 µM | Cc1noc(C(C(=O)N2C[C@H](O)CC2C2=NC(=O)[C@](C)(c3ccc(-c4scnc4C)cc3)N2)C(C)C)n1 (single isomer, unassigned) [Example 117.3]
≥ 400 µM | ≥ 150 µM | 100 µM | Cc1cc([C@@H](C(=O)N2C[C@H](O)C[C@H]2C2=NOC(c3ccccc3)(c3ccccc3)N2)C(C)C)on1 [Example 132.1, (S)-1-((2S,4R)-2-(5,5-diphenyl-4,5-dihydro-1,2,4-oxadiazol-3-yl)-4-hydroxypyrrolidin-1-yl)-3-methyl-2-(3-methylisoxazol-5-yl)butan-1-one]
≥ 400 µM | 102 µM | 100 µM | Cc1ncsc1-c1ccc([C@]2(C)NC(C3C[C@@H](O)CN3C(=O)C(c3cn(C)nn3)C(C)C)=NC2=O)cc1 (single isomer, unassigned) [Example 118.4]
≥ 400 µM | 155 µM | 100 µM | Cc1noc(C(C(=O)N2C[C@H](O)CC2C2=NC(=O)[C@](C)(c3ccc(-c4scnc4C)cc3)N2)C(C)C)n1 (single isomer, unassigned) [Example 117.1]
≥ 400 µM | 67.1 µM | ≥ 100 µM | CC/C(=C(\c1ccc(O)cc1)c1ccc(OCCN(C)C(=O)CCCOCCOc2cc(C(C(=O)N3C[C@H](O)CC3C3=NC(=O)[C@](C)(c4ccc(-c5scnc5C)cc4)N3)C(C)C)on2)cc1)c1ccccc1 (single isomer, unassigned) [Example 1003.1]
72.4 µM | 17.5 µM | 71.1 µM | Cc1cc(C(C(=O)N2C[C@H](O)CC2C2=NC(=O)[C@](C)(c3ccc(-c4scnc4C)cc3)N2)C(C)C)sn1 (single isomer, unassigned) [Example 119.3]
≥ 400 µM | ≥ 150 µM | 100 µM | Cc1cc(C(C(=O)N2C[C@H](O)C[C@H]2C2=NN(CC(F)(F)F)C(C)(C)N2)C(C)C)on1 (single isomer, unassigned) [Example 134.1]
0.418 µM | 0.0293 µM | 0.304 µM | Cc1cc([C@H](C(=O)N2C[C@H](O)C[C@H]2C2=NOC(C)(c3ccc(-c4scnc4C)cc3)N2)C(C)C)on1 (single isomer, unassigned) [Example 129.3]
≥ 400 µM | ≥ 150 µM | 100 µM | Cc1cc([C@@H](C(=O)N2C[C@H](O)C[C@H]2C2=NOC3(CCCC3)N2)C(C)C)on1 [Example 127.1, (S)-1-((2S,4R)-4-hydroxy-2-(1-oxa-2,4-diazaspiro[4.4]non-2-en-3-yl)pyrrolidin-1-yl)-3-methyl-2-(3-methylisoxazol-5-yl)butan-1-one]
157 µM | 61.5 µM | 100 µM | Cc1ncsc1-c1ccc([C@]2(C)NC(C3C[C@@H](O)CN3C(=O)C(c3cn(C)nn3)C(C)C)=NC2=O)cc1 (single isomer, unassigned) [Example 118.1]
